Reference: ChEMBL document CHEMBL1201862, “PubChem BioAssay data set” (2004)
Calls of active or inactive are those of the source.

Experiments:
[1] = target: DNA (cytosine-5)-methyltransferase 1 (Homo sapiens, UniProt P26358); assay: DNMT1 methyltransferase inhibitors, confirmation, biochemical, fluorescent molecular beacon (AID 602386); format: functional
[2] = target: T1, Low molecular weight phosphotyrosine protein phosphatase (Homo sapiens, UniProt P24666); format: functional; conditions: read-out: IC50_Mean;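 note: Dose-response confirmation assay measuring inhibition of LMPTP enzyme activity by fluorescence intensity read-out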
T1 sequence (P24666 whole entry): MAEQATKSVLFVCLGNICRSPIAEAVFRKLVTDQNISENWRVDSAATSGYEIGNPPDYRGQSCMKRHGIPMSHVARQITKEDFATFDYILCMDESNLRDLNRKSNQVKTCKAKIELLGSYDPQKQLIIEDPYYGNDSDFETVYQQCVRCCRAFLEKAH

[3] = target: T2, Adenosylmethionine-8-amino-7-oxononanoate aminotransferase (Mycobacterium tuberculosis, UniProt P9WQ81); assay: Mycobacterium tuberculosis BioA enzyme inhibitor Measured in Biochemical System Using Plate Reader - 2163-02_Inhibitor_Dose_CherryPick_Activity.; format: functional, Mycobacterium tuberculosis UT205
T2 sequence (P9WQ81 whole entry): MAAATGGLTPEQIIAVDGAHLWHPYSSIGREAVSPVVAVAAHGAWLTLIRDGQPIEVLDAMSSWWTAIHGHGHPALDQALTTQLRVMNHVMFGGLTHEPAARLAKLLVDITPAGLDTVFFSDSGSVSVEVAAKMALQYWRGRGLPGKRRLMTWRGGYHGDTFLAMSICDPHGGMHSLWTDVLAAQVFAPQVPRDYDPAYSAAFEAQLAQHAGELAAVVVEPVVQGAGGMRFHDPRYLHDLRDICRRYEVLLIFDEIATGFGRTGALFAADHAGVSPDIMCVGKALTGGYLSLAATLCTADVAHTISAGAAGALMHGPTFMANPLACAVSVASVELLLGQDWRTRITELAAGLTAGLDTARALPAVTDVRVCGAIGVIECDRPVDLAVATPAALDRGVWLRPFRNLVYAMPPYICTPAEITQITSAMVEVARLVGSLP

[4] = target: T3, Caspase-3 (Homo sapiens, UniProt P42574); format: functional;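 note: Dose-response selectivity test against caspase-3 for candidate inhibitors of sentrin-specific proteases (SENPs)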
T3 sequence (P42574 whole entry): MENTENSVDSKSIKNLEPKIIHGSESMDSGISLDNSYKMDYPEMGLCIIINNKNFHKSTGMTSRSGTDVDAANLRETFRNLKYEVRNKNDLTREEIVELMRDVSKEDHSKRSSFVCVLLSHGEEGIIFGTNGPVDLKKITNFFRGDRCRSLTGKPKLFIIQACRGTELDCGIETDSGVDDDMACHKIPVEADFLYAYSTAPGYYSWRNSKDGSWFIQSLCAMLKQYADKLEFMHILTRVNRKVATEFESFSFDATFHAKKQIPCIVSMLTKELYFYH

[5] = target: T4, Sentrin-specific protease 7 (Homo sapiens, UniProt Q9BQF6); format: functional;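 note: Luminescence-based dose-response confirmation of ultra-high-throughput screening hits, measuring inhibition of SENP7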
T4 sequence (Q9BQF6 whole entry): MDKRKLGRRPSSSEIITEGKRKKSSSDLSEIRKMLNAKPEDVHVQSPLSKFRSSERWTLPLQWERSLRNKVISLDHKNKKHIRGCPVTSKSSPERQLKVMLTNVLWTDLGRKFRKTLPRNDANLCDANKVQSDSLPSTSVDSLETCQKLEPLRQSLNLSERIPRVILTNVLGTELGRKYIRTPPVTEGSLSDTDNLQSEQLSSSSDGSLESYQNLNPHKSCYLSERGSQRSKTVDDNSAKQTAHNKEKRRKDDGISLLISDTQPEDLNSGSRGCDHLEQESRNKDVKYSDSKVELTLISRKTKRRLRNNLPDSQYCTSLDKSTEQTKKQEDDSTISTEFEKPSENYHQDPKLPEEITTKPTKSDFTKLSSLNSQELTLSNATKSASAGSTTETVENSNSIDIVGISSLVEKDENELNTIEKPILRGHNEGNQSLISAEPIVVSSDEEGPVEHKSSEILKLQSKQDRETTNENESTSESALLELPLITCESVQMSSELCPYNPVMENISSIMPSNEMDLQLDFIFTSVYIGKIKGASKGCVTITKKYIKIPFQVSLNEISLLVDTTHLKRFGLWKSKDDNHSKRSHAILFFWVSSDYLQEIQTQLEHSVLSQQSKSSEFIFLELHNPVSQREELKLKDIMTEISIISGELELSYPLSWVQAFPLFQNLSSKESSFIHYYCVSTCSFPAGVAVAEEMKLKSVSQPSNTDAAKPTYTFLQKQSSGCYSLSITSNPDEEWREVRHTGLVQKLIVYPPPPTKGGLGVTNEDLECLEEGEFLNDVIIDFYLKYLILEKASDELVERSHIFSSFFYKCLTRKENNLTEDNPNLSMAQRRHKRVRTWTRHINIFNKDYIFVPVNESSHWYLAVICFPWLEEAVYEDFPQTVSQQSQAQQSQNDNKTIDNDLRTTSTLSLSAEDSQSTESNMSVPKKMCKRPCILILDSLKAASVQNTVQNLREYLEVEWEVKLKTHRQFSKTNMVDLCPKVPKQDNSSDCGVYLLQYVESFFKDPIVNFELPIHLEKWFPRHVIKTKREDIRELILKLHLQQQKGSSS

[6] = target: T5, Sentrin-specific protease 6 (Homo sapiens, UniProt Q9GZR1); format: functional;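 note: Luminescence-based dose-response confirmatory assay of SENP6 inhibition, following up an ultra-high-throughput screen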
T5 sequence (Q9GZR1 whole entry): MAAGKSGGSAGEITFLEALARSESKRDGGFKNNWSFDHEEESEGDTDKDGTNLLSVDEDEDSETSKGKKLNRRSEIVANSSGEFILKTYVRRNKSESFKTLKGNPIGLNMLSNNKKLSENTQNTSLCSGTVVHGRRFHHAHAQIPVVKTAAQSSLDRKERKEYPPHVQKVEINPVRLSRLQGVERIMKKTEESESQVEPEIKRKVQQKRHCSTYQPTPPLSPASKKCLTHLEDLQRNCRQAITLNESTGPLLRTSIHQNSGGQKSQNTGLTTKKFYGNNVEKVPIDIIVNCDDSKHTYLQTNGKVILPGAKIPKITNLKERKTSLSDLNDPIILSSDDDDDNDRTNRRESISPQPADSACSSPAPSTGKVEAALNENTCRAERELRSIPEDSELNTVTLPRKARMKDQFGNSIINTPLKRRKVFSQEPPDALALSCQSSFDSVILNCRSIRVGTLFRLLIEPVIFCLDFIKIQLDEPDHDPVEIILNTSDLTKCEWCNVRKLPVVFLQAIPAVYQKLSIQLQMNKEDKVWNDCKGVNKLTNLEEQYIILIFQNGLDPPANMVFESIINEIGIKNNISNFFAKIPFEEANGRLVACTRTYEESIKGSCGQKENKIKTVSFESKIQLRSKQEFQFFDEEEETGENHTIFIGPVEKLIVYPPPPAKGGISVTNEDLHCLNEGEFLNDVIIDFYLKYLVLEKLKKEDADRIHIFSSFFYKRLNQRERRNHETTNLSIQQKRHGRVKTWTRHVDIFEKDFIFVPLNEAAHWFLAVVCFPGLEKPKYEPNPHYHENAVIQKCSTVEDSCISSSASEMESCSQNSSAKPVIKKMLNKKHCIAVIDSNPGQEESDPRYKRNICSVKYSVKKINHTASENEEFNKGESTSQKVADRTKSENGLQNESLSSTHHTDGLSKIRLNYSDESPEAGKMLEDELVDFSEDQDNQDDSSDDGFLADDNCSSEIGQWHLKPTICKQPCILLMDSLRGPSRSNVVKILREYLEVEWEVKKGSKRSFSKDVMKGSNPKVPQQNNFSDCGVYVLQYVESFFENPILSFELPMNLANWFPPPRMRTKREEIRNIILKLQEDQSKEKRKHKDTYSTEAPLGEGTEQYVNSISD

[7] = target: T6, Sentrin-specific protease 8 (Homo sapiens, UniProt Q96LD8); format: functional;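 note: luminescence read-out of SENP8 inhibition, dose-response confirmation following an ultra-high-throughput screen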
T6 sequence (Q96LD8 whole entry): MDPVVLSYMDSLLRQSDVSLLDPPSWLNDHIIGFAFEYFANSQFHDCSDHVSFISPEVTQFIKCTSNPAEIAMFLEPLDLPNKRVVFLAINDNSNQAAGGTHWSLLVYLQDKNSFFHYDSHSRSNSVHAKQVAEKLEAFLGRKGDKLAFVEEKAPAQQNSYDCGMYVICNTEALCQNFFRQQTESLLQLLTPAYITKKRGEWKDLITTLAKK

[8] = target: T7, Long-chain-fatty-acid--AMP ligase FadD28 (Mycobacterium tuberculosis, UniProt P9WQ59); assay: Fluorescence polarization aasay to screen for inhibitors that compete for the binding of FadD28 to a bisubstrate Measured in Biochemical System Using Plate Reader - 2147-01_Inhibitor_Dose_CherryPick_Activity.; format: functional, Mycobacterium tuberculosis H37Rv
T7 sequence (P9WQ59 whole entry): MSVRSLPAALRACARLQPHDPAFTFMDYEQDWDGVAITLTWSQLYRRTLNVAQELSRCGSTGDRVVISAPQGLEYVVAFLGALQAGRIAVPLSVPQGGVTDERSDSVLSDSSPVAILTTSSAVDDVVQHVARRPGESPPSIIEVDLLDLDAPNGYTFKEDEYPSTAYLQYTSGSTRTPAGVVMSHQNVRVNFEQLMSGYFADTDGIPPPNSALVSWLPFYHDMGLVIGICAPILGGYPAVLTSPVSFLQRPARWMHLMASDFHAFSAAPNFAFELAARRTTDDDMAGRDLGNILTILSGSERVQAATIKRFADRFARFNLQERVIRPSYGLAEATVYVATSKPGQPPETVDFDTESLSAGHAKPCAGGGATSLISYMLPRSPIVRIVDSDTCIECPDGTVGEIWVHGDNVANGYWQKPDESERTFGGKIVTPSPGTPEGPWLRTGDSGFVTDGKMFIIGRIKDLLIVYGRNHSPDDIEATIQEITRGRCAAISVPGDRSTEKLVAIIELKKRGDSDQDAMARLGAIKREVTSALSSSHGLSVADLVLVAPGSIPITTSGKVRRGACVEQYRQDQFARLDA

[9] = target: T8, Carboxy-terminal domain RNA polymerase II polypeptide A small phosphatase 1 (Homo sapiens, UniProt Q9GZU7); assay: inhibitors of CTDSP1, concentration-response testing, biochemical assay, absorbance-based, actives from ultra-high-throughput screening (AID 540297); format: functional
T8 sequence (Q9GZU7 whole entry): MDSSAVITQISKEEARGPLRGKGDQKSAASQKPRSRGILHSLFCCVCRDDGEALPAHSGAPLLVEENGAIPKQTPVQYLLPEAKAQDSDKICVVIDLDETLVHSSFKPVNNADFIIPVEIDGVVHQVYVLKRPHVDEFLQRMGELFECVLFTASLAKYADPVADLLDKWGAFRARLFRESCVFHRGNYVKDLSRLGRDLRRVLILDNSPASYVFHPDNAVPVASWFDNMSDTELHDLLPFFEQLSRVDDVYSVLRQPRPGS

[10] = target: 26S proteasome non-ATPase regulatory subunit 14 (Homo sapiens, UniProt O00487); assay: inhibition of proteasome subunit RPN11 – biochemical, fluorescence polarization, uHTS hits, confirmation (AID 602368); format: functional
Sequence of 26S proteasome non-ATPase regulatory subunit 14 (O00487 whole entry): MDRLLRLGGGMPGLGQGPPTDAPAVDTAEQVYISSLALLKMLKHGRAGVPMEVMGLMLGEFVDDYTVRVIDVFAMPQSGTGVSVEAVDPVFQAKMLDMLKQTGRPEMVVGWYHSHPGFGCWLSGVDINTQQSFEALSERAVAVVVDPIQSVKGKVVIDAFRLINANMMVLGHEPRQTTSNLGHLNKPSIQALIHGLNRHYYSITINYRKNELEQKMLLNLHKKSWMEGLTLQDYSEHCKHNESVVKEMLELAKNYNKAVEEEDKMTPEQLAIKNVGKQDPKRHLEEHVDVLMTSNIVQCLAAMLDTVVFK

[11] = target: 72 kDa type IV collagenase (Homo sapiens, UniProt P08253); assay: Dose Response validation of uHTS RPN11 inhibitor hits using a MMP-2 Fluorescence assay.; format: functional
Sequence of 72 kDa type IV collagenase (P08253 whole entry): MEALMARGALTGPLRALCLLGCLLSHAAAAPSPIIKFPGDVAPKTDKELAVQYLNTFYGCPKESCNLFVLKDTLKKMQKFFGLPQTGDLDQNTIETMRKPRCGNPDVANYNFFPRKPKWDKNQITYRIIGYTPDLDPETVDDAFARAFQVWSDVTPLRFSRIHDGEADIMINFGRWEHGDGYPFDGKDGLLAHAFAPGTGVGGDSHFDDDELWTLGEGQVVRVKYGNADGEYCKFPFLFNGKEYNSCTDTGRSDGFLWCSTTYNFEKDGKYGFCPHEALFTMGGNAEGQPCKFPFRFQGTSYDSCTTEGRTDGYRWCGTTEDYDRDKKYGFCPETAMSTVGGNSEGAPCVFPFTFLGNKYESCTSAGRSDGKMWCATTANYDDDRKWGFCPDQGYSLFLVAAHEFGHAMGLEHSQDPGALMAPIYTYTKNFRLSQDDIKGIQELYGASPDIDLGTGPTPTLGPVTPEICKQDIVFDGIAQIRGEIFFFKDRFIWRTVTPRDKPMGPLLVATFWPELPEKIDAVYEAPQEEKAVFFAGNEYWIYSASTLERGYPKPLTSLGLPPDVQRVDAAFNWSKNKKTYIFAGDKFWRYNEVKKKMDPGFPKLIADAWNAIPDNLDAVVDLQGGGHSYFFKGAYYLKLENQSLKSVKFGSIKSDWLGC

[12] = target: Prothrombin (Bos taurus, UniProt P00735); assay: thrombin inhibition, dose response, biochemical, fluorescence polarization, uHTS hits (AID 602369); format: functional
[13] = inhibitors of intracellular T. cruzi replication, confirmation, NIH3T3 host cells, beta-gal luminescence (AID 2044); format: functional, cell-based;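 note: intracellular parasites grown in NIH/3T3 mouse fibroblasts as host cells; luminescent beta-galactosidase reporter signal from transgenic T. cruzi replicating inside host cells; inhibitors lower the luminescence signal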
[14] = cytotoxicity toward NIH3T3 fibroblasts, dose response, counter-screen, cell-based, ATP luminescence, mouse fibroblasts (AID 2010); format: functional;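 note: cells exposed to compound for about 90 hours before reading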
[15] = Fluorescence-based cell-based high throughput dose response assay for inhibitors of the interaction of nucleotide-binding oligomerization domain containing 2 (NOD2) and the receptor-interacting serine-threonine kinase 2 (RIPK2).; format: functional; conditions: Homo sapiens
[16] = target: Beta Lactamase (Pseudomonas aeruginosa, UniProt Q932Y6); assay: beta-lactamase reporter inhibitor potency, dose response, artefact control for NOD2-RIPK2 interaction inhibitor project, BLA reporter cells, FRET fluorescence (AID 651552); format: functional, cell-based
Sequence of Beta Lactamase (Q932Y6 whole entry): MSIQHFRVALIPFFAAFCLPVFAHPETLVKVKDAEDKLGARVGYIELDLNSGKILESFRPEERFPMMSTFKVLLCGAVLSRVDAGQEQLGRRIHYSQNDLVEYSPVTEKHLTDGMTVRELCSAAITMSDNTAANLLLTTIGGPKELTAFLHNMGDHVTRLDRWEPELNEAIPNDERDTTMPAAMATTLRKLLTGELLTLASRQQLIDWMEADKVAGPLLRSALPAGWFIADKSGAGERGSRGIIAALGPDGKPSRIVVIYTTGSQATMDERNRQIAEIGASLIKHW

Sequence of DNA (cytosine-5)-methyltransferase 1 (P26358 whole entry): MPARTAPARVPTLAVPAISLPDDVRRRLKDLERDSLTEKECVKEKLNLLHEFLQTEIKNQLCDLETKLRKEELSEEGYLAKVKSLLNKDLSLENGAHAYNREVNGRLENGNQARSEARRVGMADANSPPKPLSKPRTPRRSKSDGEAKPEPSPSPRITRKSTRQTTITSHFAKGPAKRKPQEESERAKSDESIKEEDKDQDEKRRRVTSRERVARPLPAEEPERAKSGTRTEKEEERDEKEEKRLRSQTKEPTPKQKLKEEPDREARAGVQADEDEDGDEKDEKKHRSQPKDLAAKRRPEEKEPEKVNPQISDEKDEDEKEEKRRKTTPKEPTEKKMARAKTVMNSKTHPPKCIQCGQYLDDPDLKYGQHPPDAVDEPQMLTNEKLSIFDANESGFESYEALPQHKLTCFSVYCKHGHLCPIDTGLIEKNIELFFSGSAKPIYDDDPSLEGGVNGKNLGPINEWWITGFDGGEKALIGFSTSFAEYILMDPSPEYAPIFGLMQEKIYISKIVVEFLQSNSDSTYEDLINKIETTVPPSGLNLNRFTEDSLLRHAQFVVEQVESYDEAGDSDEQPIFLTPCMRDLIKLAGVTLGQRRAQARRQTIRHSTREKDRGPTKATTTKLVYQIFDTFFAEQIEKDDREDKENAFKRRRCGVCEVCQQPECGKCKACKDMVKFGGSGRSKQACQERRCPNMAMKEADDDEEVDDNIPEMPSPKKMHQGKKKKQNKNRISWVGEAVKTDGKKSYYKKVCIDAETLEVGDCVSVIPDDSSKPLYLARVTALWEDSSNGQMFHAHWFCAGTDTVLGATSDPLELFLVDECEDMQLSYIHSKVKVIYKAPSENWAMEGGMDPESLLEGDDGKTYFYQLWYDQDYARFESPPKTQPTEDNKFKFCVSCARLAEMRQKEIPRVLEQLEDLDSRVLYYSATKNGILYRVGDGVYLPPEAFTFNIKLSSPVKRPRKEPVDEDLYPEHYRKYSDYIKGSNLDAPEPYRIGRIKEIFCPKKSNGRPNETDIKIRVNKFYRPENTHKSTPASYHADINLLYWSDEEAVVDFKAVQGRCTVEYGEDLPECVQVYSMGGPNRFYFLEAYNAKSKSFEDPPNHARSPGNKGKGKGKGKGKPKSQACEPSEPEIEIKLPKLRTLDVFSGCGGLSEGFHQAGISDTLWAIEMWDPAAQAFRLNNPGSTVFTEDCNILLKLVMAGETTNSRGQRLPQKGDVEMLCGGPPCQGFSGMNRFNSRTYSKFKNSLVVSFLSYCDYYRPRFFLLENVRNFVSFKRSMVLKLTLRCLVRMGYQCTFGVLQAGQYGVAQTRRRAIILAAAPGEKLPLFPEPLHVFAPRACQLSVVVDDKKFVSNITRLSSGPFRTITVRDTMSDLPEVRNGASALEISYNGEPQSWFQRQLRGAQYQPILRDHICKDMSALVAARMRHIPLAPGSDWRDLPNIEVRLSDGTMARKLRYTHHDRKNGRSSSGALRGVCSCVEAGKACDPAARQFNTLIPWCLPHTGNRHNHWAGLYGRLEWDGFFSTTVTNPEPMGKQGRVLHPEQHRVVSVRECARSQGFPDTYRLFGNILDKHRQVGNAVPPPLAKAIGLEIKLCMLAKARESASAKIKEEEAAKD

N=C(N)NCCCS(=O)(=O)Nc1ccc(Nc2c3ccccc3nc3cc([N+](=O)[O-])ccc23)cc1
IC50 [1]: 6.83 µM (active) | IC50 [2]: 57 µM (inactive)

O=C(Nc1ncc2c(n1)CC(c1ccccc1)CC2=O)c1ccco1 (stereo not given)
AC50 [3]: 0.201 µM (active)

O=C(Nc1ccc(Cl)c(-c2nc3ccccc3[nH]2)c1)c1cccnc1
AC50 [3]: 0.788 µM (active)

COc1cc(-c2nnc(S)n2-c2cccc(C(F)(F)F)c2)cc(OC)c1OC
AC50 [3]: 10.6 µM (active)

O=[N+]([O-])c1ccc(N/N=N/c2ccccc2)cc1
IC50 [4]: 45 µM (active) | IC50 [5]: 9.64 µM (active) | IC50 [6]: 46.5 µM (active) | IC50 [7]: 75.3 µM (active)

O=C(O)C(c1ccccc1)N1C(=O)/C(=C\c2ccc(-c3ccccc3Cl)o2)SC1=S (stereo not given)
IC50 [1]: 4.27 µM (active) | AC50 [8]: 15.6 µM (active)

CCOC(=O)c1ccc(Nc2cnc3ccccc3n2)cc1
IC50 [4]: 64.6 µM (active) | IC50 [5]: 6.72 µM (active) | IC50 [6]: > 100 µM (inactive) | IC50 [7]: > 100 µM (inactive)

O=C(NCc1cccc(CNC(=O)C(=O)NCc2ccco2)c1)C(=O)NCc1ccco1
IC50 [9]: > 80 µM (inactive) | IC50 [2]: 6.32 µM (active)

Cc1ccsc1/C=N/n1c(S)nnc1-c1cc(-c2ccccc2)[nH]n1
IC50 [10]: 21.1 µM (active) | IC50 [11]: > 100 µM (inactive) | IC50 [12]: 77.2 µM (active)

C=CCn1cc(/C=N/NC(=O)COc2cccc3cccnc23)c2ccccc21
IC50 [10]: 27.8 µM (active) | IC50 [11]: > 100 µM (inactive) | IC50 [12]: 39 µM (active)

C/N=c1\scc(-c2cc(OC)ccc2OC)n1/N=C/c1c(C)[nH]c2ccccc12
EC50 [13]: 1.64 µM (active) | EC50 [14]: > 60 µM (not active) | IC50 [10]: 23.8 µM (active) | IC50 [11]: > 100 µM (inactive) | IC50 [12]: 21.1 µM (active)

O=C(CN1CCN(S(=O)(=O)c2ccc(Br)cc2)CC1)N/N=C/c1ccc(Cl)c([N+](=O)[O-])c1
IC50 [15]: 1.83 µM (active) | IC50 [16]: 48.7 µM (inactive)
